Results reported in patent US20150335548A1, “Oral Care Composition” (COLGATE-PALMOLIVE COMPANY, priority 2012, published 2015).
“Also recorded” adds a separate entry of the source.

Key:
[1] = system: 3-day old biofilm of the artificial mouth consortium of bacteria (A. naeslundii, S. oralis, V. parvula, L. casei, F. nucleatum) and S. mutans; assay: In vitro biofilm removal, 3-day old biofilm (protocol of Example 2); assay type: cell-based; conditions: 3-day old biofilm
Protocol: The 3-day old biofilm was grown on a 24 well plate using the artificial mouth consortium of bacteria (A. naeslundii, S. oralis, V. parvula, L. casei, F. nucleatum) and S. mutans. To generate the biofilm, plates were inoculated with saliva overnight to form a pellicle. The consortium of bacteria (1 mL) at an OD of ˜0.2 was added to each well. The bacterial media (Tryptic Soy Broth with 6% sucrose) was changed after 48 hours. The 3-day old biofilm was treated with the prototype formulation (500 μL) for 15 minutes on a plate shaker at 300 rpm. After incubation, the supernatant was discarded. The optical density of each well was measured and the percentage reduction in optical density relative to the control (water) was calculated to determine the effect of the prototype formulation on biofilm removal. […]
Water, untreated biofilm, commercially available mouthwash formulations with CPC (Cetyl pyridinium chloride) and a mouthwash containing five enzymes for combatting biofilm acted as […] for the experiment.

A. viscosus [2] = assay: Growth inhibition of A. viscosus (optical density over time); assay type: cell-based
Protocol: The effects of 1-decyl-3-methylimidazolium (DMIM) chloride on bacterial growth were investigated in vitro. DMIM chloride was incorporated into a prototype mouth rinse as illustrated in Table 17. […] The growth inhibition was measured as a change in optical density over time.
The antibacterial effects of various ionic liquids were determined according to the protocol described in Example 12.

A. viscosus [3] = assay: Short Interval Kill Test (SIKT); assay type: cell-based; conditions: 0.3, 0.6 and 1 wt % in the prototype mouth rinse
Text: SIKT determines the kill effect of a test article at a predetermined exposure time. […] The reaction was neutralized after 30 seconds by adding a neutralizing broth. The reaction mixture was further diluted and plated on MCA (Microbial Count Agar) plates for viable bacterial count.

dental plaque = assay: Dissolution of plaque; conditions: water-insoluble plaque vortex mixed with ionic liquid at room temperature, centrifuged at 13,000 g
Protocol: Dental plaque samples were obtained from subjects and treated with water to remove any water soluble actives. The samples were centrifuged at 13,000 g and the supernatant was collected and discarded. The remaining plaque that was insoluble in water was used to evaluate the plaque solubilizing potential of the ionic liquids.
Ionic liquids were added to the plaque sample, and the plaque sample was vortex mixed at room temperature. To ensure that the plaque was not simply suspended in the ionic liquid, the plaque containing vial with the ionic liquid was subsequently centrifuged at 13,000 g.
Plaque may form a suspension when mixed with water and that, on centrifugation, it is visible as an insoluble pellet.

Structure (SMILES) | biofilm removal, comparison in words ([1]; listed as DMIM chloride) | Percent Biofilm Removed ([1]; other ionic liquids) | growth inhibition of A. viscosus, in words (A. viscosus [2]; formulated at 0.312 wt %) | growth inhibition of A. viscosus, in words (A. viscosus [2]; formulated at 1 wt % in prototype mouth rinse of Table 17) | time to kill A. viscosus (A. viscosus [3]) | plaque dissolution (size of plaque pellet, visual) (dental plaque) | Percent Biofilm Removed ([1]; EMIM-based ionic liquids, […] in base prototype mouth rinse of Table 1) | optical density of A. viscosus culture, 0 h (A. viscosus [2]; 10% concentration in a mouth rinse, 0 h) | optical density of A. viscosus culture, 4 h (A. viscosus [2]; 10% concentration in a mouth rinse, 4 h) | optical density of A. viscosus culture, 22 h (A. viscosus [2]; 10% concentration in a mouth rinse, 22 h) | optical density of A. viscosus culture, 24 h (A. viscosus [2]; 10% concentration in a mouth rinse, 24 h)
CCCCCCCCCCn1cc[n+](C)c1.[Cl-] [DMIM Cl, 1-decyl-3-methylimidazolium chloride] | significantly more effective in removing biofilm than EMIM chloride and BMIM chloride; also recorded: most effective in removing biofilm | 57.3% | growth inhibition of A. viscosus is maintained | greater growth inhibition of A. viscosus than a 0.075 wt % CPC mouthwash | ≤ 30 s | – | – | – | – | – | –
CCn1cc[n+](C)c1.[Br-] [EMIM Br, 1-ethyl-3-methylimidazolium bromide] | – | – | – | – | – | size of the plaque pellet is reduced | 48.6% | 0.1482 | 0.2216 | 0.7598 | 0.8533
